Converted amounts (≈) assume the structure as drawn.
Experiments:
Design in all cases: agar dilution MIC, growth inhibition of clinical Burkholderia isolates
[1] = tested on: T1, B. cenocepacia AU141094; assay: microbe, parasite or virus in culture; conditions: Burkholderia cenocepacia, AU141094
T1 construct: AU141094
From the text: (§1) We evaluated the activity of cefepime-taniborbactam against a panel of 140 Bcc clinical isolates (i.e., species ambifaria, arboris, cenocepacia, cepacia, contaminans, diffusa, dolosa, multivorans, pseudomultivorans, pyrrocinia, seminalis, stabilis, ubonensis, and vietnamiensis) and 10 B. gladioli from the Burkholderia cepacia Research Laboratory and Repository (University of Michigan) ([22], [25], [31]) (Supplementary Material, Tables S1 and S2). K. pneumoniae ATCC 700603 carrying bla SHV-18 and K. pneumoniae ATCC BAA-1705 harboring bla KPC strains were used as controls for β-lactam and β-lactamase inhibitor integrity; all controls tested within the anticipated quality control ranges (Table S3). Minimum inhibitory concentration (MIC) results were interpreted using Clinical Laboratory Standards Institute (CLSI) breakpoints, where available ([32]). […] An alternative cefepime-taniborbactam provisional susceptible breakpoint of ≤16 µg/mL is supported by in vivo efficacy data from neutropenic murine infection models (thigh, complicated urinary tract, and lung) ([15] [–] [17]) and data from safety and pharmacokinetics studies in human volunteers ([33], [34]). The cefepime-taniborbactam antimicrobial activity was compared to cefepime, meropenem, meropenem-vaborbactam, and levofloxacin, to data published for first-line agents (e.g., ceftazidime and trimethoprim-sulfamethoxazole) and to those recommended by the CLSI for clinical testing (e.g., minocycline) against the Bcc and B. gladioli panel ([22], [32]). Of note, the MICs of all these agents were determined by the agar dilution method, which alongside broth microdilution, are recommended by the CLSI to assess the antimicrobial susceptibility of Bcc isolates ([32]).

[2] = tested on: T2, B. cenocepacia AU16448; assay: microbe, parasite or virus in culture; conditions: Burkholderia cenocepacia, AU16448
T2 construct: AU16448
From the text: as §1

[3] = tested on: T3, B. cenocepacia AU20998; assay: microbe, parasite or virus in culture; conditions: Burkholderia cenocepacia, AU20998
T3 construct: AU20998
From the text: as §1

[4] = tested on: T4, B. cenocepacia AU24362; assay: microbe, parasite or virus in culture; conditions: Burkholderia cenocepacia, AU24362
T4 construct: AU24362
From the text: as §1

[5] = tested on: T5, B. cenocepacia AU8635; assay: microbe, parasite or virus in culture; conditions: Burkholderia cenocepacia, AU8635
T5 construct: AU8635
From the text: as §1

[6] = tested on: T6, B. cepacia AU13163; assay: microbe, parasite or virus in culture; conditions: Burkholderia cepacia, AU13163
T6 construct: AU13163
From the text: as §1

[7] = tested on: T7, B. contaminans AU17641; assay: organism not typed
T7 construct: AU17641
From the text: as §1

[8] = tested on: T8, B. contaminans AU2244; assay: organism not typed
T8 construct: AU2244
From the text: as §1

[9] = tested on: T9, B. contaminans AU22662; assay: organism not typed
T9 construct: AU22662
From the text: as §1

[10] = tested on: T10, B. dolosa AU12872; assay: microbe, parasite or virus in culture; conditions: Burkholderia dolosa, AU12872
T10 construct: AU12872
From the text: as §1

[11] = tested on: T11, B. dolosa AU29985; assay: microbe, parasite or virus in culture; conditions: Burkholderia dolosa, AU29985
T11 construct: AU29985
From the text: as §1

[12] = tested on: T12, B. gladioli AU30473; assay: organism not typed
T12 construct: AU30473
From the text: as §1

[13] = tested on: T13, B. multivorans AU10086; assay: microbe, parasite or virus in culture; conditions: Burkholderia multivorans, AU10086
T13 construct: AU10086
From the text: as §1

[14] = tested on: T14, B. multivorans AU15814; assay: microbe, parasite or virus in culture; conditions: Burkholderia multivorans, AU15814
T14 construct: AU15814
From the text: as §1

[15] = tested on: T15, B. multivorans AU19564; assay: microbe, parasite or virus in culture; conditions: Burkholderia multivorans, AU19564
T15 construct: AU19564
From the text: as §1

[16] = tested on: T16, B. multivorans AU23690; assay: microbe, parasite or virus in culture; conditions: Burkholderia multivorans, AU23690
T16 construct: AU23690
From the text: as §1

[17] = tested on: T17, B. multivorans AU26250; assay: microbe, parasite or virus in culture; conditions: Burkholderia multivorans, AU26250
T17 construct: AU26250
From the text: as §1

[18] = tested on: T18, B. multivorans AU30438; assay: microbe, parasite or virus in culture; conditions: Burkholderia multivorans, AU30438
T18 construct: AU30438
From the text: as §1

[19] = tested on: T19, B. pseudomultivorans AU19682; assay: organism not typed
T19 construct: AU19682
From the text: as §1

[20] = tested on: T20, B. vietnamiensis AU26096; assay: microbe, parasite or virus in culture; conditions: Burkholderia vietnamiensis, AU26096
T20 construct: AU26096
From the text: as §1

[21] = tested on: T21, B. vietnamiensis AU30387; assay: microbe, parasite or virus in culture; conditions: Burkholderia vietnamiensis, AU30387
T21 construct: AU30387
From the text: as §1

[22] = tested on: T22, Burkholderia cepacia complex Bcc Indeterminate AU12848; assay: microbe, parasite or virus in culture; conditions: Burkholderia cepacia
T22 construct: AU12848
From the text: as §1

CO/N=C(\C(=O)N[C@@H]1C(=O)N2C(C(=O)[O-])=C(C[N+]3(C)CCCC3)CS[C@H]12)c1csc(N)n1 [cefepime]
MIC [1]: > 32 µg/mL | MIC [2]: 16 µg/mL (≈ 33.3 µM) | MIC [3]: > 32 µg/mL | MIC [4]: > 32 µg/mL | MIC [5]: > 32 µg/mL | MIC [6]: 16 µg/mL (≈ 33.3 µM) | MIC [7]: 32 µg/mL (≈ 66.6 µM) | MIC [8]: 16 µg/mL (≈ 33.3 µM) | MIC [9]: 16 µg/mL (≈ 33.3 µM) | MIC [10]: > 32 µg/mL | MIC [11]: > 32 µg/mL | MIC [12]: 32 µg/mL (≈ 66.6 µM) | MIC [13]: 32 µg/mL (≈ 66.6 µM) | MIC [14]: 32 µg/mL (≈ 66.6 µM) | MIC [15]: 16 µg/mL (≈ 33.3 µM) | MIC [16]: 32 µg/mL (≈ 66.6 µM) | MIC [17]: 4 µg/mL (≈ 8.32 µM) | MIC [18]: 16 µg/mL (≈ 33.3 µM) | MIC [19]: > 32 µg/mL | MIC [20]: 32 µg/mL (≈ 66.6 µM) | MIC [21]: 2 µg/mL (≈ 4.16 µM) | MIC [22]: > 32 µg/mL

C[C@@H](O)[C@H]1C(=O)N2C(C(=O)O)=C(S[C@@H]3CN[C@H](C(=O)N(C)C)C3)[C@H](C)[C@H]12 [meropenem]
MIC [1]: 16 µg/mL (≈ 41.7 µM) | MIC [2]: 4 µg/mL (≈ 10.4 µM) | MIC [3]: 8 µg/mL (≈ 20.9 µM) | MIC [4]: 16 µg/mL (≈ 41.7 µM) | MIC [5]: 16 µg/mL (≈ 41.7 µM) | MIC [6]: 4 µg/mL (≈ 10.4 µM) | MIC [7]: 4 µg/mL (≈ 10.4 µM) | MIC [8]: 4 µg/mL (≈ 10.4 µM) | MIC [9]: 4 µg/mL (≈ 10.4 µM) | MIC [10]: 32 µg/mL (≈ 83.4 µM) | MIC [11]: > 32 µg/mL | MIC [12]: 4 µg/mL (≈ 10.4 µM) | MIC [13]: 32 µg/mL (≈ 83.4 µM) | MIC [14]: > 32 µg/mL | MIC [15]: 4 µg/mL (≈ 10.4 µM) | MIC [16]: 4 µg/mL (≈ 10.4 µM) | MIC [17]: 2 µg/mL (≈ 5.22 µM) | MIC [18]: 4 µg/mL (≈ 10.4 µM) | MIC [19]: 8 µg/mL (≈ 20.9 µM) | MIC [20]: 8 µg/mL (≈ 20.9 µM) | MIC [21]: 0.25 µg/mL (≈ 0.652 µM) | MIC [22]: 8 µg/mL (≈ 20.9 µM)

C[C@H]1COc2c(N3CCN(C)CC3)c(F)cc3c(=O)c(C(=O)O)cn1c23 [levofloxacin]
MIC [1]: > 32 µg/mL | MIC [2]: 8 µg/mL (≈ 22.1 µM) | MIC [3]: > 32 µg/mL | MIC [4]: 8 µg/mL (≈ 22.1 µM) | MIC [5]: > 32 µg/mL | MIC [6]: 2 µg/mL (≈ 5.53 µM) | MIC [7]: 4 µg/mL (≈ 11.1 µM) | MIC [8]: 4 µg/mL (≈ 11.1 µM) | MIC [9]: 4 µg/mL (≈ 11.1 µM) | MIC [10]: > 32 µg/mL | MIC [11]: > 32 µg/mL | MIC [12]: 2 µg/mL (≈ 5.53 µM) | MIC [13]: > 32 µg/mL | MIC [14]: 16 µg/mL (≈ 44.3 µM) | MIC [15]: 8 µg/mL (≈ 22.1 µM) | MIC [16]: > 32 µg/mL | MIC [17]: 2 µg/mL (≈ 5.53 µM) | MIC [18]: 4 µg/mL (≈ 11.1 µM) | MIC [19]: 16 µg/mL (≈ 44.3 µM) | MIC [20]: > 32 µg/mL | MIC [21]: 2 µg/mL (≈ 5.53 µM) | MIC [22]: 8 µg/mL (≈ 22.1 µM)

Reference: publication PMC10648927, “Examining the activity of cefepime-taniborbactam against Burkholderia cepacia complex and Burkholderia gladioli isolated from cystic fibrosis patients in the United States” (Antimicrobial Agents and Chemotherapy, 2023)
